Measured values from US20030134901A1, “Lipoxin compounds and their use in treating cell proliferative disorders” (priority 1993, published 2003).

Tests used:
A549 cells = assay: A549 cell proliferation, MTT assay; assay type: cell-based, human; details: for % inhibition: 10^−7 M, 72 hours at 37° C., mean ± SEM, 3 to 7 experiments
Procedure: A microculture 3,(4,5-dimethylthiazoyl-2-yl) 2,5 (diphenyl-tetrazolium bromide) (MTT) assay, (Marshall, N. J., et al. (1995) A critical assessment of the use of microculture tetrazolium assays to measure cell growth and function. Growth Regul. 5: 69-84.), was used to examine the actions of LXs and other eicosanoids on cell proliferation. A549 cells and fibroblasts from exponential-phase maintenance cultures were counted and dispensed within replicate 96-well culture plates in 100 μl volumes of medium (˜2000 cells/well). Following 24 hours at 37° C., the culture medium was removed, and fresh medium (100 μl) containing either the compounds (5-1000 nM) or vehicle (medium plus 0.15% ethanol) was added to 4 replicates for each condition studied and the culture plates were then incubated for up to 96 hours at 37° C. in a 5% CO2 atmosphere. At the end of this period, 25 μl of freshly prepared MTT in HBSS (5 mg/ml) was added to the wells and the plates were incubated for 4 hours at 37° C. Dye solution was aspirated, wells were washed once with HBSS and dye taken up by the cells was extracted in 100 μl of isopropyl alcohol:1 N HCl (96:4, v/v) and quantitated at 570 nm using a microplate reader (Molecular Devices, Menlo Park, Calif.). In some experiments, cells were grown in 12-well culture plates, treated as above and enumerated using a Neubauer hemocytometer. Viability was assessed routinely using trypan blue exclusion assay. For the A549 cells and fibroblasts, a linear relation was established for the MTT values and cell number within the range of the experiments shown (r=0.995, P<0.005). A549 cells grown for 72 hours in the presence of the compounds (5-1000 nM) or vehicle (0.15% EtOH) were lysed with 0.25 N NaOH and the cellular protein content was determined by applying the Bio-Rad (Richmond, Calif.) microassay method using bovine serum albumin as standard. The mean cellular protein content in resting A549 cells was 46.6±1.5 pg/cell.

[1] = target: T1, LXA4 specific binding sites of differentiated HL-60 cells (Homo sapiens, UniProt P25090); assay: 3H-LXA4 specific binding to differentiated HL-60 cells; details: for displacement of 3H-LXA4 specific binding: competition, competitor 300 nM where printed
T1 construct: endogenous in cells; host or cells: HL-60 cells differentiated with DMSO, retinoic acid or PMA; intact cells
T1 sequence (P25090 1-351): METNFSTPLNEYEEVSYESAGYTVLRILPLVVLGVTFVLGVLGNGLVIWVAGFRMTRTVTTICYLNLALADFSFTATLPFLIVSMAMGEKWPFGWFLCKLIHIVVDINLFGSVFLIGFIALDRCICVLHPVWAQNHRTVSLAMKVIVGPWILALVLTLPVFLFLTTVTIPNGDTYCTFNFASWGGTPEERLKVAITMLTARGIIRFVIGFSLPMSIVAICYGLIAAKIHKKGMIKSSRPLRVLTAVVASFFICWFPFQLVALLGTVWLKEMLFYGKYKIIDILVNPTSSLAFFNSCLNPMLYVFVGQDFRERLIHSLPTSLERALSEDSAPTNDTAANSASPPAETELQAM
Procedure: Preparation of [11,12-^3H]LXA4. Tritiation of 11,12-acetylenic LXA4 methyl ester was carried out under a custom tritiation service (NET-259:92-2326) by New England Nuclear (Boston, Mass.). Briefly, 11,12-acetylene methyl ester was characterized by UV absorbance and reverse-phase HPLC as in (Nicolaou, K. C. et al. (1985) J. Am. Chem. Soc. 107:7515) and exposed to tritium atmosphere in methylene chloride at room temperature. This incubation was stirred in the presence of Lindlar catalyst (1.0 mg from Fluka Chemicals) for˜1 h. The resulting mixture was stored in methanol and isolated using RP-HPLC. Tritiated products were chromatographed as methyl esters utilizing a gradient HPLC system equipped with a photodiode array rapid spectral detector (Serhan, C. N., Methods in Enzymology: Arachidonate Related Lipid Mediators, in Murphy R. C., Fitzpatrick, F. (eds.), vol. 187. Orlando, Fla., Academic, (1990), p. 167). This mixture contained both [11,12-^3H]LXA4 and [11,12-^3H]-11-trans-LXA4 methyl esters (˜1:3 ratio) as determined by coelution with synthetic standards. After RP-HPLC, fractions containing [11,12-^3H]LXA4 were collected, and extracted into ethyl acetate. The free acid was prepared by LiOH saponification (Fiore, S. et al. (1992) J. Biol. Chem. 267:16168). Material from these fractions, when injected into UV-electrochemical detection HPLC, gave greater than 90% of radioactivity associated with a tetraene-containing product that coeluted with synthetic LXA4. Materials that eluted with the retention time of authentic LXA4 in two HPLC systems were taken for binding experiments. The specific activity calculated for [11,12-^3H]LXA4 was 40.5 Ci/mmole.
Cell cultures and differentiation. HL-60 cells were seeded in RPMI medium supplemented with 100 U/ml penicillin, 100 μg/ml streptomycin, and 10% fetal calf serum (Hyclone, Logan, Utah), incubated at 37° C. with 5% CO2 atmosphere in 250 ml flasks. Individual flasks containing ˜[…] next received dimethyl sulfoxide (DMSO) (1.12% v/v, 120 h) or retinoic acid (RA) (1 μM, 120 h) or phorbol myristate acetate (PMA) (20 nM, 48 h). Before performing binding assays, cells were washed twice in phosphate buffered saline (PBS), Ca^2+- and Mg^2+-free, enumerated and suspended at 20×10^6 cells/ml in Tris buffer (10 mM), pH 7.4 (Fiore, S. et al.(1992) J. Biol. Chem. 267:16168). Nitro blue tetrazolium reduction was performed to monitor induction of polymorphonuclear phenotype as in (Imaizumi, M. and Breitman, T. R. (1986) Blood 67:1273), and cell adherence was determined for induction of macrophage-like phenotype (Collins, S. J. (1987) Blood 70:1273). Human umbilical vein endothelial cells (HUVEC) maintained in culture third passage were obtained from Dr. M. Gimbrone (Brigham and Women's Hospital Department of Pathology).
Ligand binding. ^3H-LXA4 and ^3H-LTB4 binding was performed essentially as in Fiore, S. et al.(1992) J. Biol. Chem. 267:16168. After suspending cells in Tris buffer 10 mM (pH 7.4, Ca^2+ 2.5 mM, Mg^2+ 1.2 mM), aliquots (0.5 ml) were incubated (20 min at 4° C.) with ^3H- ligands alone (0.3 nM) or in the presence of increasing concentrations of homoligands or other compounds (3-300 nM). The incubations were rapidly centrifuged (60 sec, 12,000 g) on silicon oil (d=1.028), and cell-associated radioactivity was determined by liquid scintillation counting (Wallac 1409, Pharmacia, Piscataway, N.J.). Binding experiments with HUVEC cells were performed in 12 well plates with 3.5×10^5 cells/well. After 10 min, wells were washed twice with PBS and cell-associated label was recovered by adding glacial acetic acid (0.5 ml). Results obtained from these assays were submitted for further analysis using the Ligand program (Elsevier-Biosoft, Cambridge, UK).

PMA-treated HL-60 cells = assay: Lipoxin metabolism / bio-half-life assay with phorbol ester-treated HL-60 cells; assay type: in vitro ADME, human; details: at times up to two hours
Procedure: HL-60 cells were purchased from American Type Culture Collection (Rockville, Md.), and other cell culture reagents were from GIBCO (Grand Island, N.Y.). Versene (EDTA) was from Whittaker Bioproducts (Walkersville, Md.). Synthetic 11,12-acetylenic LXA4 methyl ester and LXs were from Cascade Biochemical (Reading, U.K.). 15(S)-15-m-PGE1, PGE1, and 5-HETE were from Cayman Chemical Co. (Ann Arbor, Mich.). [11,12-^3H]LXA4 was prepared from 11,12-acetylenic LXA4 using Lindlar catalyst as a custom tritiation (NET-259, lot 0 2793-275, New England Nuclear, Boston, Mass.). Tritiated products were isolated using RP-HPLC (Fiore et al. (1992) J. Biol. Chem. 267:16168; Serhan, C. N. (1990) Meth. Enzymol. 187:167). Methoxyamine and NAD were from Sigma Chemical Company (St. Louis, Mo.). Manganese dioxide and Adams reagent were from Aldrich Chemical Co. (Milwaukee, Wis.).
Human PMN were obtained from healthy volunteers by gradient centrifugation of heparinized fresh venous blood (Böyum, A. ([…]) Scand. J. Clin. Lab. Invest. 21:77). HL-60 cells were seeded in RPMI supplemented with penicillin (100 U/ml), streptomycin (100 μ/ml), fetal bovine serum (10%) (Hyclone, Logan, Utah) and incubated (37° C. with 5% CO2 atmosphere) in plastic 250 ml flasks. Individual flasks containing […] HL-60 cells/ml were incubated in the presence or absence of phorbol 12-myristate 13-acetate (PMA) (10 or 16 nM, 24-27 h) and adherence was monitored for induction of macrophage-like phenotype as in Collins, S. J. (1987) Blood 70:1233. […]
Incubations with eicosanoids were stopped with cold methanol containing either PGB2 or 5-HETE as internal standards (5-HETE was used when 15-oxo-ETE was quantified). […] Formation of 15-oxo-ETE by 100,000 g supernatants (cf. Agins, A. P. et al. (1987) Agents Actions 21:397; Xun, C-Q. et al.(1991) Biochem. J. 279:553; and Sok, D-E. et al. (1988) Biochem. Biophys. Res. Commun. 156:524) was quantified after RP-HPLC using an ODS column (4.6 mm×25 cm) eluted with methanol/H2O/acetic acid (70:30:0.01, v/v/v) monitored at 280 nm with a flow rate of 1 ml/min. […] On-line spectra were recorded using a diode array detector (Hewlett-Packard 1040M series II) equipped with HPLC^3D ChemStation software (DOS series). […]
The “bio-half-life” of compounds 1-8 was assessed using phorbol ester-treated human promyelocytic leukemia (HL-60) cells as described in Example 2. […]

| Compound | % inhibition (A549 cells) [%] | displacement of 3H-LXA4 specific binding [1] | also measured |
| --- | --- | --- | --- |
| CCCCC[C@@H](O)/C=C/C=C\C=C\C=C\C(O)C(O)CCCC(=O)O (stereo in doubt) [15-epi-LXA4, 15R-5,6,15-trihydroxy-7,9,13-trans-11-cis-eicosatetraenoic acid] | 20.1 ± 1.9 |  | inhibition of A549 cell growth compared with LXA4 (A549 cells; equimolar levels (100 nM)): to a similar extent as LXA4 |
| CCCCC[C@@H](O)C(O)/C=C/C=C/C=C\C=C\C(O)CCCC(=O)O (stereo in doubt) [15-epi-LXB4, 15R-5,14,15-trihydroxy-6,10,12-trans-8-cis-eicosatetraenoic acid] | 79.3 ± 0.3 |  | inhibition proliferation (A549 cells; equimolar levels (100 nM), Table 1): ~80% |
| trihydroxyheptanoic acid (methyl ester) |  | Neither LXB4, LTB4, nor trihydroxyheptanoic acid (methyl ester) (300 nM) were able to displace |  |
| COc1ccc(/C=C/CCCCOc2cccc(OCCCCC(=O)O)c2CCC(=O)O)cc1 [ONO-4057] |  | did not displace |  |
| CCCCC/C=C\C\C=C/C=C/C=C/[C@@H](SC[C@H](NC(=O)CC[C@H](N)C(=O)O)C(=O)NCC(=O)O)[C@@H](O)CCCC(=O)O [LTC4] |  |  | decrease of 3H-LXA4 specific binding ([1]; added in 3 log molar excess): ~30% |
| cyclohexyl-LXA4 [compound 4] |  |  | recovery in the incubation medium (bio-half-life) (PMA-treated HL-60 cells): quantitatively recovered |
